Measured values as given in ChEMBL document CHEMBL4706543, “Discovery of the first potent and selective αβ integrin inhibitor based on an amide-containing core” (Eur J Med Chem, 2020).
In brackets after ≈: the same amount, converted by molar mass.

Columns and labels:
[1] = target: T1, Integrin alpha-V/beta-3 (Homo sapiens, UniProt P05106+P06756); assay: Inhibition of integrin alphavbeta3 (unknown origin) by fluorescence polarization assay
[2] = target: T2, Integrin alpha-V/beta-5 (Homo sapiens, UniProt P06756+P18084); assay: Inhibition of integrin alphavbeta5 (unknown origin) by fluorescence polarization assay
[3] = organism: Homo sapiens; assay: Selectivity ratio of IC50 for inhibition of integrin alphavbeta3 (unknown origin) to IC50 for inhibition of integrin alphavbeta5 (unknown origin)
[4] = target: T1, Integrin alpha-V/beta-3; assay: Inhibition of human alphavbeta3 integrin stably expressed in human K562 cells assessed as inhibition of cell adhesion to GST-LAP1 incubated for 30 mins by BCECF-AM staining based fluorescence assay
[5] = target: T2, Integrin alpha-V/beta-5; assay: Inhibition of human alphavbeta5 integrin stably expressed in human K562 cells assessed as inhibition of cell adhesion to vitronectin incubated for 30 mins by BCECF-AM staining based fluorescence assay
[6] = Lipophilicity, log D of compound by chromatographic method; assay type: physicochemical
[7] = Solubility of the compound by CAD method; assay type: physicochemical
[8] = Passive permeability of compound in MDCK cells; assay type: ADME, cell-based, Canis lupus familiaris; conditions: dog, read-out: permeability
[9] = Clearance in human microsomes assessed per gram tissue; assay type: ADME, Microsome
[10] = Clearance in human hepatocytes assessed per gram tissue; assay type: ADME, cell-based, Hepatocyte
[11] = Clearance in rat microsomes assessed per gram tissue; assay type: ADME, Microsome
[12] = Clearance in rat hepatocytes assessed per gram tissue; assay type: ADME, cell-based, Hepatocyte
[13] = Clearance in human microsomes based well stirred model; assay type: ADME, Microsome
[14] = Clearance in human hepatocytes based well stirred model; assay type: ADME, cell-based, Hepatocyte
[15] = Clearance in rat microsomes based well stirred model; assay type: ADME, Microsome
[16] = Clearance in rat hepatocytes based well stirred model; assay type: ADME, cell-based, Hepatocyte
[17] = target: Integrin alpha-V/beta-1 (Homo sapiens, UniProt P05556+P06756); assay: Inhibition of integrin alphavbeta1 (unknown origin) by fluorescence polarization assay; assay type: protein-complex assay
[18] = target: Integrin alpha-V/beta-6 (Homo sapiens, UniProt P06756+P18564); assay: Inhibition of integrin alphavbeta6 (unknown origin) by fluorescence polarization assay; assay type: protein-complex assay
[19] = target: Integrin alpha-V/beta-8 (Homo sapiens, UniProt P06756+P26012); assay: Inhibition of integrin alphavbeta8 (unknown origin) by fluorescence polarization assay; assay type: protein-complex assay
Sequence of Integrin alpha-V/beta-8 (P06756 31-889 limits assumed): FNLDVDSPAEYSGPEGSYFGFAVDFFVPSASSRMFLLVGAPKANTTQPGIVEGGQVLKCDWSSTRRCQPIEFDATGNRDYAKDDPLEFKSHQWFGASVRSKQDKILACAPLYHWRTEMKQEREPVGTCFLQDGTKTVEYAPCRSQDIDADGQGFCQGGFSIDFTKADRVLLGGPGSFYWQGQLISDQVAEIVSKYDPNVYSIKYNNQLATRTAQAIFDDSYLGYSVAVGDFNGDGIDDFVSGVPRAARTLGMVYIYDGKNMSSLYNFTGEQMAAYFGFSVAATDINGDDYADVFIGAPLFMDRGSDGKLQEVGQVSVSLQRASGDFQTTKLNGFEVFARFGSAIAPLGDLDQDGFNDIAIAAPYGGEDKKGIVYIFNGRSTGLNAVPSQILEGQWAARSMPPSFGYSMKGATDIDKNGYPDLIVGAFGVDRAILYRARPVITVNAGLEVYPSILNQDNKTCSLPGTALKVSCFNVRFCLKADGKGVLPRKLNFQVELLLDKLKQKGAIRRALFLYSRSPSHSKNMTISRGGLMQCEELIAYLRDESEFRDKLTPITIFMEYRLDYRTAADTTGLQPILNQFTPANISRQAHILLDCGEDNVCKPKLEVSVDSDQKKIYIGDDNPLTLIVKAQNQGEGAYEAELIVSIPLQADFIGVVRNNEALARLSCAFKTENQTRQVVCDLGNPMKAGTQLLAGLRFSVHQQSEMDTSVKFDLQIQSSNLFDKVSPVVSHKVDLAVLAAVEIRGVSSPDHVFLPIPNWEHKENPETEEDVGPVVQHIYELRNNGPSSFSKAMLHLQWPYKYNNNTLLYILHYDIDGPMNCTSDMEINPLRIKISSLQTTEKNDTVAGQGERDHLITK
Sequence of Integrin alpha-V/beta-8 (P06756 891-1048 limits assumed): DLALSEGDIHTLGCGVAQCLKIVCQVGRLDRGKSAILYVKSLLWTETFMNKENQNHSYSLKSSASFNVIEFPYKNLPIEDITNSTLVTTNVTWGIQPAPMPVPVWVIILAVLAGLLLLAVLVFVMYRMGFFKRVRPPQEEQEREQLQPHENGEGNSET
Sequence of Integrin alpha-V/beta-8 (P26012 43-769 limits assumed): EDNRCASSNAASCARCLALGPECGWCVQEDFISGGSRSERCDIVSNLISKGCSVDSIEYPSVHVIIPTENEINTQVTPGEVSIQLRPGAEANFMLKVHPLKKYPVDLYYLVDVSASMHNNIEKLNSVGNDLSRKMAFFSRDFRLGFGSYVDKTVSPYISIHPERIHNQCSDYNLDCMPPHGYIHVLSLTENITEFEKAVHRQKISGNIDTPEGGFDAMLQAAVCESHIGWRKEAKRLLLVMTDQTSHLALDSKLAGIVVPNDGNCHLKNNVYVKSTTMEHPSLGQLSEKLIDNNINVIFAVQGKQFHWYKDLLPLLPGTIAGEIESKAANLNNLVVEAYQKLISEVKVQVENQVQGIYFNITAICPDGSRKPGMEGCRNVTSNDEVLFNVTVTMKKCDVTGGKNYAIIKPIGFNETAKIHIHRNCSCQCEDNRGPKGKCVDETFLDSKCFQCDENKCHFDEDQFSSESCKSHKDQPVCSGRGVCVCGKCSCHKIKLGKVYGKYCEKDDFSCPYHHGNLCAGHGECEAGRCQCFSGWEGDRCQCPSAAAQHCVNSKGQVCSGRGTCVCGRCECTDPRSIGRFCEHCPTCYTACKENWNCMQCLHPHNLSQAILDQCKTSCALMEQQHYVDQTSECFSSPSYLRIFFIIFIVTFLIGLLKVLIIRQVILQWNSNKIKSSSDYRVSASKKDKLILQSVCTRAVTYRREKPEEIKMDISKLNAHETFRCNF

T2 sequence (P06756 31-889 limits assumed): as the sequence (P06756 31-889 limits assumed) above
T2 sequence (P06756 891-1048 limits assumed): as the sequence (P06756 891-1048 limits assumed) above
T2 sequence (P18084 24-799 limits assumed): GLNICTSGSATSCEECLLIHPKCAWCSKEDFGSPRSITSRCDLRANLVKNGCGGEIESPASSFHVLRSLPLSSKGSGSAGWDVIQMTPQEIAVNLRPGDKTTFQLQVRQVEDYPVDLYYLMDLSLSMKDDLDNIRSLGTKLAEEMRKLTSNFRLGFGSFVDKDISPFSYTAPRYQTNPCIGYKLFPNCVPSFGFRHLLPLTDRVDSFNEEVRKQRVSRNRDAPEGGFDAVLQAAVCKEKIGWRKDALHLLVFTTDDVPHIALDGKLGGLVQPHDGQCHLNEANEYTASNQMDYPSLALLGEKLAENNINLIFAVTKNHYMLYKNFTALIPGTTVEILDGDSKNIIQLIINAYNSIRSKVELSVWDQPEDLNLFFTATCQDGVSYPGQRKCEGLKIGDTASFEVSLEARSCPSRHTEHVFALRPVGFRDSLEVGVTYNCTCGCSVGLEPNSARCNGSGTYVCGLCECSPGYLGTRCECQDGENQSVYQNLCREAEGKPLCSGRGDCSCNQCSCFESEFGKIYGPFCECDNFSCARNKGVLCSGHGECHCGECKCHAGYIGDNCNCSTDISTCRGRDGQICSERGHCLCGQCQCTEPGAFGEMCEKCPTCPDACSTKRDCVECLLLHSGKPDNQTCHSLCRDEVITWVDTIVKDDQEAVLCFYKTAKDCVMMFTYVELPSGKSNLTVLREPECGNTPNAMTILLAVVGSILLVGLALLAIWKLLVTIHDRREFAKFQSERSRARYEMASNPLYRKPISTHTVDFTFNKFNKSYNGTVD
T1 sequence (P05106 27-788 limits assumed): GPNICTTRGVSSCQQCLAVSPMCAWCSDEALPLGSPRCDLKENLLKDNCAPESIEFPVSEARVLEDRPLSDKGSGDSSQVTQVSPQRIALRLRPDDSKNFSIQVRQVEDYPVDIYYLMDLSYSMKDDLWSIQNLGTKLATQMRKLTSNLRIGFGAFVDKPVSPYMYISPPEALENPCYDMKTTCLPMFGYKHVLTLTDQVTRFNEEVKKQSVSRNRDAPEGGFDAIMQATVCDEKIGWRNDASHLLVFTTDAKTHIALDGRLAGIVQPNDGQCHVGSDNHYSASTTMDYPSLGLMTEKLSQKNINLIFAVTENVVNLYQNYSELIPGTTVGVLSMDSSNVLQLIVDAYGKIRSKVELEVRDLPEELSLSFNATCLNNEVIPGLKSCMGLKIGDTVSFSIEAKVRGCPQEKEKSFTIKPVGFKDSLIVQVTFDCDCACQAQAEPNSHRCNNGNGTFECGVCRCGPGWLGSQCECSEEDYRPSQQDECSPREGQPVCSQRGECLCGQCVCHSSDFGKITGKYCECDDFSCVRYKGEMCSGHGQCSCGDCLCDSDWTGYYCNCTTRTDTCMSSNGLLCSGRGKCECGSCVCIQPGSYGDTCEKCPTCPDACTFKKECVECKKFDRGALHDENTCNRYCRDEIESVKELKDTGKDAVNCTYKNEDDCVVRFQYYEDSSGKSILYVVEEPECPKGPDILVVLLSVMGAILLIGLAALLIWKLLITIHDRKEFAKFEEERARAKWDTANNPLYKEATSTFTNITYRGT
T1 sequence (P06756 31-889 limits assumed): as the sequence (P06756 31-889 limits assumed) above
T1 sequence (P06756 891-1048 limits assumed): as the sequence (P06756 891-1048 limits assumed) above
Sequence of Integrin alpha-V/beta-1 (P05556 21-798 limits assumed): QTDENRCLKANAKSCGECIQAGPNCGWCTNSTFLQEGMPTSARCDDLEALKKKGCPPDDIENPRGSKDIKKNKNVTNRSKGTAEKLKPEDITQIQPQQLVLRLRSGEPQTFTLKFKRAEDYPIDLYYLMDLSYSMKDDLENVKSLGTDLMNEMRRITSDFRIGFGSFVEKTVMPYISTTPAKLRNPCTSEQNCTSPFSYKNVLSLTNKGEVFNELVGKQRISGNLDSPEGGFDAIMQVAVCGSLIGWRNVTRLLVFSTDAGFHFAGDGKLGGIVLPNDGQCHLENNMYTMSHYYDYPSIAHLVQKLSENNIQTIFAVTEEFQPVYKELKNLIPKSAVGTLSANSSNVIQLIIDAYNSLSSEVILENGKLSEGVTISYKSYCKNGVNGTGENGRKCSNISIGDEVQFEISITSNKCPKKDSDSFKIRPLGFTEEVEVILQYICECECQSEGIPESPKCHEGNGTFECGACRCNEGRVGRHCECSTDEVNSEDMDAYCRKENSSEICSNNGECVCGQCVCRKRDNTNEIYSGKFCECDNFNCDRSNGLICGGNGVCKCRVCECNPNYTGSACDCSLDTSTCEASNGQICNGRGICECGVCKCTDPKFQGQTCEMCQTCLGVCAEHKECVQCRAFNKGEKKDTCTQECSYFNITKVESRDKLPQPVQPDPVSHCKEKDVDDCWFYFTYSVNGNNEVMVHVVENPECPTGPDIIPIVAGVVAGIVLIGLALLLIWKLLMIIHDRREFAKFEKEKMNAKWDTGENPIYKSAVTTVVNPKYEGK
Sequence of Integrin alpha-V/beta-1 (P06756 31-889 limits assumed): as the sequence (P06756 31-889 limits assumed) above
Sequence of Integrin alpha-V/beta-1 (P06756 891-1048 limits assumed): as the sequence (P06756 891-1048 limits assumed) above

SMILES	IC50 [1] [nM]	IC50 [2] [nM]	Ratio IC50 [3]	other results
O=C(O)C[C@H](C(=O)N1CC[C@@H](CCc2ccc3c(n2)NCCC3)C1)c1cccc(C(F)(F)F)c1	5010	–	800	IC50 [4]: > 10000 nM; IC50 [5]: 794 nM; chromatographic logD [6]: 5.05; solubility [7]: 141 µg/mL (≈ 297 µM); Papp [8]: 29.5 ×10⁻⁶ cm/s; clearance [9]: < 0.4 mL/min/g; CLH [10]: < 0.45 mL/min/g; clearance [11]: < 0.46 mL/min/g; CLH [12]: 14.3 mL/min/g; clearance [13]: < 6 mL/min/kg; CLH [14]: < 7 mL/min/kg; clearance [15]: < 14 mL/min/kg; CLH [16]: 68 mL/min/kg
O=C(O)C[C@H](C(=O)N1CCCC(CCc2ccc3c(n2)NCCC3)C1)c1ccccc1 (some centres not stated)	6310	501	13	–
O=C(O)C[C@@H](C(=O)N1CC[C@@H](CCc2ccc3c(n2)NCCC3)C1)c1cccc(Br)c1	10000	2000	5	–
O=C(O)C[C@H](C(=O)N1CC(CCc2ccc3c(n2)NCCC3)C1)c1ccccc1	3160	25.1	125	–
Cc1cc(C)cc([C@H](CC(=O)O)C(=O)N2CC[C@@H](CCc3ccc4c(n3)NCCC4)C2)c1	3980	10	400	IC50 [4]: > 10000 nM; IC50 [5]: 501 nM
O=C(O)C[C@H](C(=O)N1CC[C@@H](CCc2ccc3c(n2)NCCC3)C1)c1cccc(-c2ccccc2)c1	2000	6.31	320	–
CN(CCCCc1ccc2c(n1)NCCC2)C(=O)[C@@H](CC(=O)O)c1ccccc1	5010	200	25	–
O=C(O)C[C@H](C(=O)N1CC[C@@H](CCc2ccc3c(n2)NCCC3)C1)c1cccc(C2CC2)c1	6310	7.94	800	IC50 [4]: > 10000 nM; IC50 [5]: 316 nM
C=C(C)c1cccc([C@H](CC(=O)O)C(=O)N2CC[C@@H](CCc3ccc4c(n3)NCCC4)C2)c1	2510	5.01	500	IC50 [4]: > 10000 nM; IC50 [5]: 316 nM
O=C(O)C[C@H](C(=O)N1CC[C@@H](CCc2ccc3c(n2)NCCC3)C1)c1ccccc1Br	12600	1260	10	–
O=C(O)C[C@H](C(=O)N1CC[C@@H](CCc2ccc3c(n2)NCCC3)C1)c1cccc(C2CCCC2)c1	2510	–	200	–
O=C(O)C[C@H](C(=O)N1CC[C@@H](CCc2ccc3c(n2)NCCC3)C1)c1cccc(N2CCOCC2)c1	2000	12.6	160	–
Cc1cccc([C@H](CC(=O)O)C(=O)N2CC[C@@H](CCc3ccc4c(n3)NCCC4)C2)c1	1580	3.98	400	IC50 [4]: 6310 nM; IC50 [5]: 79.4 nM; chromatographic logD [6]: 4.16; solubility [7]: 142 µg/mL (≈ 337 µM); Papp [8]: 17.6 ×10⁻⁶ cm/s; clearance [9]: < 0.4 mL/min/g; CLH [10]: < 0.45 mL/min/g; clearance [11]: < 0.46 mL/min/g; CLH [12]: 3.2 mL/min/g; clearance [13]: < 6 mL/min/kg; CLH [14]: < 7 mL/min/kg; clearance [15]: < 14 mL/min/kg; CLH [16]: 46 mL/min/kg

The next lines start with results.

IC50 [1] [nM]	IC50 [2] [nM]	Ratio IC50 [3]	SMILES	other results
251	39.8	6	O=C(O)CCn1ccc2cc(OCCCNc3ccccn3)ccc21	–
794	3.98	200	O=C(O)C[C@H](C(=O)N1CC[C@@H](CCc2ccc3c(n2)NCCC3)C1)c1cccc(Br)c1	–
39.8	10	4	CNc1cccc(CCOc2ccc3c(ccn3CCC(=O)O)c2)n1	–
1260	7.94	160	O=C(O)C[C@H](C(=O)N1CC[C@@H](CCc2ccc3c(n2)NCCC3)C1)c1cccc(C2=CCCC2)c1	–
1580	5.01	320	O=C(O)C[C@H](C(=O)N1CC[C@@H](CCc2ccc3c(n2)NCCC3)C1)c1cc(Br)cc(Br)c1	–
631	3.16	200	Cc1csc([C@H](CC(=O)O)C(=O)N2CC[C@@H](CCc3ccc4c(n3)NCCC4)C2)c1	–
1260	10	125	CN1CCN(c2cccc([C@H](CC(=O)O)C(=O)N3CC[C@@H](CCc4ccc5c(n4)NCCC5)C3)c2)CC1	–
1260	6.31	200	O=C(O)C[C@H](C(=O)N1CC[C@@H](CCc2ccc3c(n2)NCCC3)C1)c1ccc(Br)cc1	–
158	3.98	40	O=C(O)C[C@H](C(=O)N1CC[C@@H](CCc2ccc3c(n2)NCCC3)C1)c1cccc(O)c1	–
794	5.01	160	O=C(O)C[C@H](C(=O)N1CC[C@@H](CCc2ccc3c(n2)NCCC3)C1)c1cccs1	–
501	3.16	160	N#Cc1cccc([C@H](CC(=O)O)C(=O)N2CC[C@@H](CCc3ccc4c(n3)NCCC4)C2)c1	chromatographic logD [6]: 3.69; solubility [7]: 192 µg/mL (≈ 444 µM); Papp [8]: 5.7 ×10⁻⁶ cm/s; clearance [9]: < 0.4 mL/min/g; CLH [10]: < 0.45 mL/min/g; clearance [11]: < 0.46 mL/min/g; CLH [12]: 1.4 mL/min/g; clearance [13]: < 6 mL/min/kg; CLH [14]: < 7 mL/min/kg; clearance [15]: < 14 mL/min/kg; CLH [16]: 30 mL/min/kg
158	6.31	25	Cc1ccc([C@H](CC(=O)O)C(=O)N2CC[C@@H](CCc3ccc4c(n3)NCCC4)C2)s1	–
794	7.94	100	O=C(O)C[C@H](C(=O)N1CC(CCCc2ccc3c(n2)NCCC3)C1)c1ccccc1	–
316	3.16	100	O=C(O)C[C@H](C(=O)N1CC[C@@H](CCc2ccc3c(n2)NCCC3)C1)c1cc(Br)cs1	–
501	3.98	125	O=C(O)C[C@H](C(=O)N1CC[C@@H](CCc2ccc3c(n2)NCCC3)C1)c1ccsc1	–
1000	3.98	250	O=C(O)C[C@H](C(=O)N1CC[C@@H](CCc2ccc3c(n2)NCCC3)C1)c1ccccc1	IC50 [17]: 3980 nM; IC50 [18]: > 79400 nM; IC50 [19]: > 79400 nM
200	10	20	O=C(O)C[C@H](C(=O)N1CC[C@@H](CCc2ccc3c(n2)NCCC3)C1)c1ccc(Br)s1	–
1580	15.8	100	O=C(O)C[C@H](C(=O)N1CC[C@@H](CCc2ccc3c(n2)NCCC3)C1)c1cccc(N2CCNCC2)c1	–
1000	2.51	400	O=C(O)C[C@H](C(=O)N1CC[C@@H](CCc2ccc3c(n2)NCCC3)C1)c1cccc(Cl)c1	IC50 [4]: 6310 nM; IC50 [5]: 126 nM
